Results on 24 compounds are retold here after ChEMBL document CHEMBL1201862, “PubChem BioAssay data set” (2004).

Test [1] addresses T1, Corticotropin-releasing factor receptor 2/Corticotropin-releasing factor-binding protein (Homo sapiens, UniProt P24387+Q13324).
T1 sequence (Q13324 whole entry): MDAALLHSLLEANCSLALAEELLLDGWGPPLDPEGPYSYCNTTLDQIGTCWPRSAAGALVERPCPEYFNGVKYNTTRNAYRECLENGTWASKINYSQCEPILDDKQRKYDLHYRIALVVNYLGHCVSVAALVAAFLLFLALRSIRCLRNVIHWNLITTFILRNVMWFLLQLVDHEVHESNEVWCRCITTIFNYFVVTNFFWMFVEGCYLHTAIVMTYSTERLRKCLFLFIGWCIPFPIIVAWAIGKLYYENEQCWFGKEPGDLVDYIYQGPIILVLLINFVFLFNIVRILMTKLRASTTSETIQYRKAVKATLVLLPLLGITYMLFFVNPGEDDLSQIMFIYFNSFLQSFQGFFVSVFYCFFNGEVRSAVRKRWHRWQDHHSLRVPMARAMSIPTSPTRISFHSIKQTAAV
T1 sequence (P24387 whole entry): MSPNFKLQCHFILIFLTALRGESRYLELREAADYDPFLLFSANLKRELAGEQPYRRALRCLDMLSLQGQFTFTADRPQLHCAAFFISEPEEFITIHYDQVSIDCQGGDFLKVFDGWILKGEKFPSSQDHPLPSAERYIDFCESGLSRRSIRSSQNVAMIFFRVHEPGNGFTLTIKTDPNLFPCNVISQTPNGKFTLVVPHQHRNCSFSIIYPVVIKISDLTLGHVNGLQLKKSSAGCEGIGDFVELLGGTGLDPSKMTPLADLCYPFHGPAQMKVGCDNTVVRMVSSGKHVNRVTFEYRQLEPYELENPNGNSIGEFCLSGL
Nature of the test: activators of CRF receptor 2 with binding protein – uHTS hits, confirmation (AID 602473). The test is classed as functional. To be noted: read-out: EC50_Mean.

The next test addresses T2, Cytochrome P450 1A2 (Homo sapiens, UniProt P05177).
T2 sequence (P05177 whole entry): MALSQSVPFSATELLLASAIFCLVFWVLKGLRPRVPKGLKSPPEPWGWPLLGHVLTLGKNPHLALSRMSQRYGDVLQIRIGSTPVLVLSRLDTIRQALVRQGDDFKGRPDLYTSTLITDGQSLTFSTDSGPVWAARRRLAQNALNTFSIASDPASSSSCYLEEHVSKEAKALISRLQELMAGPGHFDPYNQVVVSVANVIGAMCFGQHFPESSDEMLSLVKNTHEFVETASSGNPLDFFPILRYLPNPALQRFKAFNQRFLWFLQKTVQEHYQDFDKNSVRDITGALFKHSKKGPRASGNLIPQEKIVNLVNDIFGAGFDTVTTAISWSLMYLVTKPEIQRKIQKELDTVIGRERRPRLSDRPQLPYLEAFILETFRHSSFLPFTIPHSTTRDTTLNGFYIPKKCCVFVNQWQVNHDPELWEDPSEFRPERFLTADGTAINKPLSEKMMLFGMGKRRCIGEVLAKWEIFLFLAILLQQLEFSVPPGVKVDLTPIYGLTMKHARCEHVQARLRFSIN

A further test has as its target Cytochrome P450 2C19 (Homo sapiens, UniProt P33261). Kind of test: Cytochrome panel assay with activity outcomes. Panel member name: p450-cyp2c19 Compounds with AC50 equal or less than 10 uM are considered active. The test is classed as functional. To be noted: read-out: AC50.
Another test deals with Cytochrome P450 2C9 (Homo sapiens, UniProt P11712).
Test [2] addresses T1, Corticotropin-releasing factor receptor 2/Corticotropin-releasing factor-binding protein. Nature of the test: Dose Response confirmation of uHTS hits for small molecule antagonists of the CRF-binding protein and CRF-R2 receptor complex. It counts as functional. To be noted: read-out: IC50_Mean.
Another test concerns the target Paired box protein Pax-8 (Homo sapiens, UniProt Q06710). Nature of the test: inhibitors of PAX8-driven TPO luciferase reporter, dose response, RMG-I cells, cherry-pick (AID 687027).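 Note: luciferase reporter driven by Pax8 target thyroperoxidase promoter measured by SteadyGlo luminescence.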 The test is classed as functional, cell-based.
In the next test the test system is Streptococcus. Nature of the test: Group A Streptococcus viability loss, dose response, counter-screen for streptokinase expression inhibitor project, luminescence, BacTiterGlo (AID 1915).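 Note: potency for reduction of bacterial viability or growth.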 The test is classed as functional, organism-based.
In test [3] the test system is Streptococcus sp. 'group A'. Nature of the test: growth inhibition of control SK(-) GAS strain, dose response, counter-screen for streptokinase expression inhibitor project, luminescence, kanamycin, BacTiterGlo, confirmation (AID 1900). It counts as functional, organism-based.
The next test has as its target T3, Streptokinase A (Streptococcus pyogenes serotype M1, UniProt P10520).
T3 sequence (P10520 whole entry): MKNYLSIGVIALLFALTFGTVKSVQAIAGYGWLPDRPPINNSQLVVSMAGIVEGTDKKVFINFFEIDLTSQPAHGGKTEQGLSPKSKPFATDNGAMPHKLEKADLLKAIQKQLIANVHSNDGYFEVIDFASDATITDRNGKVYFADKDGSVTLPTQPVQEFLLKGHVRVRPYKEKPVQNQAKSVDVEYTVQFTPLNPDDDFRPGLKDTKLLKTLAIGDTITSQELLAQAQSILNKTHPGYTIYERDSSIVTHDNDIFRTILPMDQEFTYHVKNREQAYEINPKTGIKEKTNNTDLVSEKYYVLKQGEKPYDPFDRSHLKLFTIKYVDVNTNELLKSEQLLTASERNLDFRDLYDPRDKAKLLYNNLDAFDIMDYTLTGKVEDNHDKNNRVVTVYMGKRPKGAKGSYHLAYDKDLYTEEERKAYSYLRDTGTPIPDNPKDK
Nature of the test: S. pyogenes streptokinase expression inhibitors, potency, dose response, plasminogen activation absorbance, OD405 (AID 1914).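 Note: secreted streptokinase activity via plasminogen activation per viability signal from cell pellet.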 It counts as functional, Streptococcus pyogenes M1 GAS.

For test [4], the target named is T4, Rac GTPase-activating protein 1 (Homo sapiens, UniProt Q9H0H5).
T4 sequence (Q9H0H5 whole entry): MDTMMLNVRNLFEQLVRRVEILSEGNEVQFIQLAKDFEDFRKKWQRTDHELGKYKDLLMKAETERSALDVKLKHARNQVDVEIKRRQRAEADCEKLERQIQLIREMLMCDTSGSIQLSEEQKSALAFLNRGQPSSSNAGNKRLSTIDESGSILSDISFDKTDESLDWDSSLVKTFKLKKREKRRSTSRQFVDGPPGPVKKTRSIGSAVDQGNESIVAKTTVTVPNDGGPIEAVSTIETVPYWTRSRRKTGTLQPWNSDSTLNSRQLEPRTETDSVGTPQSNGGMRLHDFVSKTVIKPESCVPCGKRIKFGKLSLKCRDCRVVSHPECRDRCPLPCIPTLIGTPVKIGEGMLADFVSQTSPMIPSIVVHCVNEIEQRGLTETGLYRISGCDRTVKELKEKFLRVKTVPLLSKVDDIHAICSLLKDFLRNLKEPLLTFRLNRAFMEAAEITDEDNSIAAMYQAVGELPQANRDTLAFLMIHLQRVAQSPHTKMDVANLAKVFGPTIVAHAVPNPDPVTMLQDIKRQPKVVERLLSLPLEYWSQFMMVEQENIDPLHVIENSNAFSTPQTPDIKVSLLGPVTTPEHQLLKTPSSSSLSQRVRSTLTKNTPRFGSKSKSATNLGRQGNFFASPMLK
Nature of the test: MgcRacGAP GTPase-activating activity inhibitors, confirmation, biochemical, ADP Hunter fluorescence, primary and confirmatory (AID 624330). It counts as functional.

In test [5] the target is T5, Heat shock factor protein 1 (Mus musculus, UniProt P38532).
T5 sequence (P38532 whole entry): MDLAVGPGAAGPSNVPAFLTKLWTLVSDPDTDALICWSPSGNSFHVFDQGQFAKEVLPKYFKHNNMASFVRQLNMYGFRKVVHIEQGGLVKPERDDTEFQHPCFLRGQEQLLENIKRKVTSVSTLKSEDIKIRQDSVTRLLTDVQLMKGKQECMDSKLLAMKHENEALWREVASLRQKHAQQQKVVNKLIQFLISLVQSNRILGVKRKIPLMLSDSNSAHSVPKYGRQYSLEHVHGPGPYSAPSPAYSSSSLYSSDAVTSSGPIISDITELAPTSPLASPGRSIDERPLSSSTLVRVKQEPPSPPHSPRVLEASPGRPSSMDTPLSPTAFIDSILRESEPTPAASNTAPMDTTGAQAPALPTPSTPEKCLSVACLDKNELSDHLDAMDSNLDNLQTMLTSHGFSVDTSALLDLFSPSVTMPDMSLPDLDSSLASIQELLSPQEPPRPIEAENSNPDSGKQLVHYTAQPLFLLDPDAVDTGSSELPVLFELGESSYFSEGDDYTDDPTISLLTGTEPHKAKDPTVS
Nature of the test: inhibition of MG132-induced HSE-luciferase signal, confirmation, cell-based, NIH3T3, luminescence, dose retest (AID 2382).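 Note: NIH3T3 fibroblasts with HSF1-driven luciferase reporter stressed by proteasome inhibitor MG132; luminescence from HSF1-driven luciferase expression after 8 hours of MG132 stress.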 It counts as functional.

Test [6] is described as follows: Luminescence Cell-Based Dose Retest to Confirm Inhibitors of Cancer Stem Cells. [Related pubchem assays (depositor defined):AID2717, AID2721]. It counts as functional. To be noted: Homo sapiens.

Active and inactive are the calls of the source.

Sequence of Paired box protein Pax-8 (Q06710 whole entry): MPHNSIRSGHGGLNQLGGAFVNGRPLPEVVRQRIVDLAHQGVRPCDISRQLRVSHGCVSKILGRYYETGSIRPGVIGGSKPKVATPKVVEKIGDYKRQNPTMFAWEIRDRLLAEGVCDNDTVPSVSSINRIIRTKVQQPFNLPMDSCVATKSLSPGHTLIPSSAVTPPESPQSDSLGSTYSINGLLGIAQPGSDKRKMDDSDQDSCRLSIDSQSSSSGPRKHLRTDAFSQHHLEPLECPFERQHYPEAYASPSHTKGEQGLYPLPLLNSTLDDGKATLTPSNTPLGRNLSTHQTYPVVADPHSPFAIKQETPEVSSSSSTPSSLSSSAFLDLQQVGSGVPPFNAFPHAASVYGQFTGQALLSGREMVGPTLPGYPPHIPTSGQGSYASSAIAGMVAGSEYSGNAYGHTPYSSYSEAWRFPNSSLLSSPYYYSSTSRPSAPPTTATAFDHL
Sequence of Cytochrome P450 2C19 (P33261 whole entry): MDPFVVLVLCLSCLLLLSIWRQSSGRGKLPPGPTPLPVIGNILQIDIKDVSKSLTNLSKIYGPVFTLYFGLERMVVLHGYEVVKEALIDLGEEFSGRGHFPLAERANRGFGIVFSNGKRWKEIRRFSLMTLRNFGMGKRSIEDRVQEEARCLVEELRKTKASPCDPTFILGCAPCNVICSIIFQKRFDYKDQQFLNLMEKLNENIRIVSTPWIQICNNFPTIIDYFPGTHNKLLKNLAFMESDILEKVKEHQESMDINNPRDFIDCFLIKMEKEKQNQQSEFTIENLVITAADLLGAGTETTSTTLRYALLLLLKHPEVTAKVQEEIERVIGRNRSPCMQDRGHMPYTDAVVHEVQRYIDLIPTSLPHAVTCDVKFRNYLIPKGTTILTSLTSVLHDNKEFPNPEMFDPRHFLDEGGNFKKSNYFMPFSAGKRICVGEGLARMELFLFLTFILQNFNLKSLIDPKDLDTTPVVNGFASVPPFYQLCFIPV
Sequence of Cytochrome P450 2C9 (P11712 whole entry): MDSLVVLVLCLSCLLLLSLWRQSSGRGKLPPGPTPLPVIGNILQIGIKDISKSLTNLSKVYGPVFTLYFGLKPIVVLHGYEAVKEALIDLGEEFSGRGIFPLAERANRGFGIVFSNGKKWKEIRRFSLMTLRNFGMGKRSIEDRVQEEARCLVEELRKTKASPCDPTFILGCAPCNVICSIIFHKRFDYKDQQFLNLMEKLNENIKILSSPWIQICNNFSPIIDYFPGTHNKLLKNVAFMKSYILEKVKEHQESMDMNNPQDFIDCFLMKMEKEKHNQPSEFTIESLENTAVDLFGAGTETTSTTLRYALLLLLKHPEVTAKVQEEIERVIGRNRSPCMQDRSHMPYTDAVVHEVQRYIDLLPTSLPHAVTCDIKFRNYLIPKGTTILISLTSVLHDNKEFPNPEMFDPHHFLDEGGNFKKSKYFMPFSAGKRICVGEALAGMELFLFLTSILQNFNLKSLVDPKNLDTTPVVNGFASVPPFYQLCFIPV

Consider `Cc1sc2ncnc(OCC(=O)NC(C)C)c2c1C`, for which the EC50 in test [1] was > 53 µM (inactive). Besides, the AC50 at Cytochrome P450 1A2 was 31.6 µM (inconclusive); on Cytochrome P450 2C19 it was 20 µM (inconclusive); at Cytochrome P450 2C9, 22.4 µM (inconclusive). Further, the IC50 in [2] is > 47.1 µM (inactive).
`O=C(Nc1ccc([N+](=O)[O-])cn1)c1cc(-c2cccc(Br)c2)nc2ccccc12`: the AC50 on Paired box protein Pax-8 is 45.6 µM (active).
On to `Cc1noc(C)c1-c1nnc(-c2ccc(OC(F)(F)F)cc2)o1`, for which the EC50 (in the test on Streptococcus; in [3]; on Streptokinase A) was > 150 µM (not active) in each case.
In the case of `Cc1cccc(C(=O)NC(=S)N2CCN(C(=S)NC(=O)c3cccc(C)c3)CC2)c1`, the EC50 in test [1] was > 53 µM (inactive). In addition, in test [2], the IC50 was > 47.1 µM (inactive).
For `C[C@@H]1CCCCO[C@H](CN(C)Cc2ccc(Cl)c(Cl)c2)[C@@H](C)CN([C@@H](C)CO)C(=O)c2cc(NS(=O)(=O)c3ccc(Cl)cc3)ccc2O1`, at Paired box protein Pax-8, the AC50 is 10.2 µM (active).
In the case of `O=C(NCc1ccccn1)C1CCN(S(=O)(=O)c2c[nH]cn2)CC1`, the EC50 in test [1] is > 53 µM (inactive). The IC50 in [2] was > 47.1 µM (inactive).
Take `Oc1ccc(/C=N/Nc2nc(N3CCCCCC3)nc(N3CCCCCC3)n2)c(O)c1`: the EC50 in test [1] is > 53 µM (inactive); in the test with Streptococcus, 1.86 µM (active); in test [3], 1.13 µM (active). In [2], the IC50 is > 47.1 µM (inactive).
Consider `O=C(c1ccccc1F)N1CCN(Cc2ccc3c(c2)OCO3)CC1`, for which the IC50 in test [4] was 125 µM (active).
Turning to `CC(Oc1cccc(Cl)c1)C(=O)NNC(=O)c1cccnc1` (stereo not given), in [1], the EC50 is > 53 µM (inactive). Moreover, the IC50 in test [2] is > 47.1 µM (inactive).
On to `Oc1ccc(N2CCN(Cc3cc4c(cc3Br)OCCO4)CC2)cc1`, for which, in test [4], the IC50 is 66.7 µM (active).
In the case of `COc1cc(NC(=O)CSc2ncnc3sc4c(c23)CCCC4)c(C(=O)O)cc1OC`, the results for the EC50 (with Streptococcus; in [3]; at Streptokinase A) were > 150 µM (not active), 20.8 µM (active) and > 150 µM (not active), respectively.
For `O=C1N=C(N/N=C/c2cccs2)SC1Cc1ccc(Cl)c(Cl)c1` (stereo not given), the EC50 in test [5] is 21 µM (active); with Streptococcus it was > 150 µM (not active); at Streptokinase A, > 150 µM (not active).
`Cc1ccc(CN2CCN(C3CCOCC3)CC2CCO)cc1` (stereo not given): the EC50 in [1] is > 53 µM (inactive). Also, the IC50 in test [2] is > 47.1 µM (inactive).
As to `CCOC(=O)c1c(O)cc(C)cc1Nc1ccccc1`, the figures for the EC50 (in the test with Streptococcus; in test [3]; on Streptokinase A) were > 150 µM (not active), > 150 µM (not active) and 139 µM (active), respectively.
As to `Cc1cc2nc(N=C(N)NC(=O)C(C)C)nc(C)c2cc1C`, at Streptokinase A, the EC50 is listed as > 150 µM (not active).
Take `CCOC(=O)c1sc(NC(=O)c2cccc(S(=O)(=O)N3CCN(C)CC3)c2)cc1C`: the EC50 in test [1] is > 53 µM (inactive). The IC50 in [2] is > 47.1 µM (inactive).
For `Cc1ccc(S(=O)(=O)Nc2ccc3c(c2)C(=O)N([C@H](C)CO)C[C@@H](C)[C@H](CN(C)Cc2ccc(C(F)(F)F)cc2)OCCCC[C@@H](C)O3)cc1`, at Paired box protein Pax-8, the AC50 is 8.45 µM (active).
On the same count and under the same terms, the result for `C[C@@H]1CN([C@H](C)CO)C(=O)c2cc(NC(=O)Nc3ccc(F)cc3)ccc2O[C@@H](C)CCCCO[C@H]1CN(C)S(=O)(=O)c1ccc(F)cc1` reads 8.62 µM (active).
In the case of `Clc1ccc(-c2nnc(CSc3nnc(-c4cccs4)o3)o2)cc1`, the EC50 in [1] is > 53 µM (inactive). For the same compound, the IC50 in test [2] was > 47.1 µM (inactive).
The like results for `COc1cccc(C2CC(c3cccs3)=NN2C(=S)Nc2ccccc2)c1OC` (stereo not given) were, in that order, > 53 µM (inactive) and > 47.1 µM (inactive).
Regarding `COc1ccc(NC2CCCN(C(=O)c3csc(C)n3)C2)cc1` (stereo not given), the IC50 in test [4] is 107 µM (active).
`OC(C/N=c1\sc2ccccc2n1CC(O)COc1ccccc1)COc1ccccc1` (stereo not given): the EC50 was > 150 µM (not active) in the test on Streptococcus, 8.85 µM (active) in [3] and 10.3 µM (active) at Streptokinase A.
`COc1ccccc1NC(=O)Nc1ccc(-n2ccc(C(F)(F)F)n2)cc1`: the AC50 in [6] was 4.01 µM (active).
With `Cc1cc(/C=C2/C(=N)N3C(=NC2=O)SN=C3S(C)(=O)=O)c(C)n1-c1ccc(F)cc1`, the EC50 in the test on Streptococcus was > 150 µM (not active); in test [3], 9.96 µM (active); on Streptokinase A, > 150 µM (not active).
